For the assay, the system named is phenol red excretion in mice. As to the kind of experiment: Expectorant test, phenol red excretion method in mice. The class given is in vivo, ICR mice. The protocol: • Animals: male ICR mice; • Drugs and reagents: Mucosolvan (ambroxol hydrochloride tablets), phenol red, sodium bicarbonate, protein BD-3; • Instruments: centrifuge (Sigma-3K15 type), balance (XS105DU type), Microplate tester (BIO-TEK type). • Experiment Grouping: • Solvent control group; • Mucosolvan 30 mg/kg group; • Protein BD-3, 20 mg/kg group, 50 mg/kg group.
The animals were fasted and water was taken freely 16 hours before the experiment. Orally administered Mucosolvan and different doses of protein BD-3 (administration volume 10 ml/kg) in groups, and the solvent control group was given the same volume of distilled water. One hour later, 2.5% phenol red solution was injected intraperitoneally. Mice were sacrificed by neck dislocation after 30 minutes. […] Measure and record the absorbance at 546 nm. According to the standard curve of phenol red, the excretion of phenol red was calculated.
Record the time point of oral administration, the time point of intraperitoneal injection of 2.5% phenol red solution, and the time point of taking the trachea respectively; The absorbance of each group of samples was measured by the microplate reader at 546 nm, Calculate the excretion of phenol red according to the standard curve of phenol red. […]

Counter-ions that a name gives are not always drawn.

Compound `Nc1c(Br)cc(Br)cc1CN[C@H]1CC[C@H](O)CC1` [Mucosolvan, ambroxol hydrochloride, reference compound] had a Phenol red excretion (Mucosolvan 30 mg/kg oral, X ± SEM, solvent control 0.506 ± 0.040) of 1.061 ± 0.117 µg/mL. Moreover, the “Amount of phenol red excretion vs solvent control (in words)” value (Mucosolvan 30 mg/kg, P<0.05) is given as “significantly increased”.

Source of the values: patent US20240124556A1, “KERATIN BD-3, PREPARATION METHOD THEREFOR AND PHARMACEUTICAL COMPOSITION AND USE THEREOF” (INSTITUTE OF MATERIA MEDICA, CHINESE ACADEMY OF MEDICAL …, priority 2019, published 2024).
